From ChEMBL document CHEMBL1144991, “Autoradiographic visualization of corticotropin releasing hormone type 1 receptors with a nonpeptide ligand: synthesis of [(76)Br]MJL-1-109-2” (J Med Chem, 2003)

Molecular target: T1, Corticotropin-releasing factor receptor 1 (Rattus norvegicus, UniProt P35353)
T1 sequence (P35353 whole entry): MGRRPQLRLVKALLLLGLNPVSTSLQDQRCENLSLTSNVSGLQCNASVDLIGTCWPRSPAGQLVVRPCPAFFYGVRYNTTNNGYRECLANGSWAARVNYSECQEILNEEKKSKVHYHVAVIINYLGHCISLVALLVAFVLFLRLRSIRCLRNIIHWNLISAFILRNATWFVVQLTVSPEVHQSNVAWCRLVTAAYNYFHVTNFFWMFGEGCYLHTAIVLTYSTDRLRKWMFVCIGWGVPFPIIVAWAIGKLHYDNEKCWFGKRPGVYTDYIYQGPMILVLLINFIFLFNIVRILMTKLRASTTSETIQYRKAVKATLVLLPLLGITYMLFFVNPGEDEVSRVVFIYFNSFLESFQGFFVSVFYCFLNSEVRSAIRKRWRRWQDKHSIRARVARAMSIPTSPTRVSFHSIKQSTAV
Assay: Affinity for the Corticotropin releasing factor receptor 1 (CRHR1) was determined in rat brain
Format: tissue-based

| SMILES | Ki [nM] |
| --- | --- |
| COCCN(CCOC)c1nc(C)nc2c(-c3ccc(Br)cc3Cl)c(C)nn12 | 1.9 |
| CCCCN(CC)c1nc(C)nc2c1c(C)c(C)n2-c1c(C)cc(C)cc1C [ANTALARMIN] | 1 |
